Values quoted from earlier work as cited in patent publication US20050059087A1, “Antibodies directed to the deletion mutants of epidermal growth factor receptor and uses thereof” (priority 2003, published 2005).

Tests used:
[1] = system: P388 lymphocytic leukemia system; details: in vivo; cited from earlier work
L1210 cells = details: treatment of L1210 cells in vivo; cited from earlier work
[2] = system: human acute lymphoblastic leukemia line CEM; details: in vitro; cited from earlier work
[3] = vs methotrexate, daunorubicin, vincristine; cited from earlier work
[4] = system: P388, L1210, and LY5178 murine leukemic cell suspensions; details: in vitro; cited from earlier work

SMILES: COc1cc2cc(c1Cl)N(C)C(=O)C[C@H](OC(=O)[C@H](C)N(C)C(C)=O)[C@]1(C)O[C@H]1[C@H](C)[C@@H]1C[C@@](O)(NC(=O)O1)[C@H](OC)/C=C/C=C(\C)C2 [Maytansine]
- Dosage range over which tumor growth was inhibited [1]: 50- to 100 fold
- Cells accumulating in mitosis (L1210 cells): 67%
- Inhibitory concentration [2]: ≥ 10^−7 mg/ml
- Cytotoxicity relative to conventional cancer chemotherapeutic agents [3]: 100 to 1000 fold
- Inhibitory doses [4]: 10^−3 to 10^−1 µg/µl
